In article PMC9890698 (BMC Biology, 2023):
Values joined by “and” are separate entries in the source; they are usually repeats but may differ in a detail not shown here. Identical values can stand only once.

What was measured:
[1] = system: Gαq protein in HEK293T cells (pcDNA3.1); test: Gαq protein activation BRET2 assay in control HEK293T cells without receptor (pcDNA3.1 / 0 μg); assay type: cell-based, Human; details: pcDNA3.1, ADP 10 μM, 1 min, individual experiments
Text: As previously described, using a BRET^2 (bioluminescence resonance energy transfer)-based assay, we directly monitored the basal Gαq protein activation by measuring the interaction between Gαq and Gγ2 subunits of the Gαqβ1γ2 heterotrimer complex. Indeed, this assay is based on the non-radiative transfer between the Renilla reniformis luciferase (RLuc8) energy donor fused to the Gαq protein subunit and the fluorescent GFP2 energy acceptor fused to Gγ2 protein subunit (Fig. 1a). […] By contrast, ligand-independent constitutive receptor activation or agonist-induced receptor activation will promote Gαq/Gγ2 subunit dissociation, thereby leading to a decrease of the basal BRET signal (Fig. 1a). […] To preclude any P2Y1-R activation by a passive release of ADP by HEK293T cells, we performed similar experiments in the presence of high concentration of apyrase (0.2U/mL) to degrade any trace of ADP in the medium (Additional File 2: Fig. S2a). Under these conditions, P2Y1-R expression still induces a marked and significant decrease of the basal BRET signal compared to control cells (pcDNA3.1), thereby supporting a P2Y1-R-dependent constitutive activation of Gαq protein. […] Of note, because P2Y1-R and AT1-R were respectively Myc- and HA-tagged and were thus detected using different primary antibodies, their expression at the cell surface cannot be compared between each other’s.
G protein activation and β-arrestin 2 recruitment were performed as previously described. […] BRET signal between RLuc8 and GFP2 was measured after addition of the luciferase substrate coelenterazine 400a (5 μM). […] BRET signal was recorded after incubation with coelenterazine h (5 μM) for 8 min. For kinetics studies, BRET signal between RLuc and Venus was recorded at 20-s intervals at basal state for the 2 first minutes and then for 5 min after ligand injection. For saturation curves (BRET^1), the expression level of Venus- or RLuc-tagged protein was determined by direct measurement of total fluorescence and luminescence respectively. Total fluorescence was first measured with an excitation filter at 485 nm and an emission filter at 520 nm. Then, the same sample was incubated for 8 minutes with 5 μM coelenterazine h and the total luminescence was measured. BRET^2 and BRET^1 readings were collected using a modified Infinite F500 (Tecan Group Ltd). The BRET^2 signal was calculated by the ratio of emission of GFP2 (510–540 nm) to RLuc8 (370–450 nm) and the BRET^1 signal by the ratio of emission of Venus (520–570 nm) to RLuc (370–480 nm). Sometimes, results are expressed as the Net BRET computed by deducting the BRET background signal (obtained in the presence of the energy donor alone) from the BRET signal (acquired from cells expressing both the energy donor and acceptor).

P2Y1-R = system: P2Y1-R; design: method as in PMID 29724785; details: Alzheimer's disease mouse model, result in words; cited from earlier work

Nc1ncnc2c1ncn2[C@@H]1O[C@H](COP(=O)(O)OP(=O)(O)O)[C@@H](O)[C@H]1O [ADP, adenosine diphosphate]
ADP-modulated BRET [1]: -0.02779 and 0.00353 and 0.02201 and 0.01275 and 0.006152 and -0.007154

CNc1ncnc2c1ncn2[C@H]1C[C@H](OP(=O)(O)O)[C@@H](COP(=O)(O)O)O1 [MRS2179]
Effect on network homeostasis, spatial learning and memory (P2Y1-R): restored network homeostasis and protected from the decline of spatial learning and memory
